# Columns and labels:
# PMN = assay: 32PO4 incorporation into non-saponifiable lipids of PMN labeled with γ-32PO4-ATP; format: cell-based, human; conditions: GM-CSF 25 ng/ml, 60 min, 37° C.; relative to cells without agonist
# Protocol: To determine FMLP (10−^7 M)-induced changes in compound VI and VIII mass (inset), radioactive compounds were eluted and inorganic phosphorus levels were measured. In addition, PMN labeled with γ-^32PO4-ATP were incubated in the presence or absence of GM-CSF (25 ng/ml, 60 min, 37° C.)(b) with ^32P content quantitated as above. Values represent the mean±SEM for duplicate determinations from at least two separate PMN. The percent increase after exposure to GM-CSF is relative to parallel incubations with cells in the absence of agonist. **p<0.0005 and * p<0.03 by Student's paired t-test.
# neutrophil sonicates = assay: Superoxide anion generation by neutrophil sonicates (post-nuclear supernatants, cytochrome c reduction); format: biochemical, human; conditions: arachidonic acid C20:4 75 μM, phosphatitic acid C10:0 100 μM
# Protocol: Neutrophil lipids were saponified (10% KOH in methanol, 37° C., 30 min), extracted (Van Dessel, G. A. F., Lagrou, A. R. Hilderson, H. J. J. & Dierick, W. S. H. In: CRC Handbook of Chromatography (eds Mukherjee, K. D., Weber, N. & Sherma, J.) 321-337 (CRC Press, Boca Raton, 1993)) and separated by CC4 silica (1 gm/10^8 PMN) column chromatography as in FIG. 1f. […] After 2 min (37° C.) in a thermal-jacketed cuvette, β-NAPH (200 μM) was added to initiate reactions and absorbance (550 nm) was monitored at 15 second intervals. […]
# To determine O2- production (FIGS. 1a-c), post-nuclear supernatants from neutrophils after sonication (0.1-0.5 mg protein/ml) (as generally described in Bromberg, Y. & Pick, E. Cell. Immunol. 88, 213-221 (1984), the teachings of which are incorporated herein by reference), 100 μM phosphatitic acid (C10:0, Avanti Polar Lipids, Inc.) and lipid extracts (0.1% ethanol) were added to cytochrome c (60 μM), sucrose (170 mM), EGTA (1 mM), FAD (10 μM), NaN3 (2 mM) and either superoxide dismutase (30 ug/ml) or H20 at 0° C. […] After 2 min (37° C.) in a thermal-jacketed cuvette, B-NADPH (200 μM) was added to initiate reactions and absorbance (550 nm) was monitored at 15 second intervals or following termination (10 minutes, 0° C.). […]
# [1] = test system: electroporated neutrophils; assay: Superoxide anion generation (NADPH oxidase activity) by electroporated neutrophils; format: cell-based, human
# Description: To test the impact of compounds VI and VIII on neutrophil responses, the isolated lipids were introduced into neutrophils by electroporation prior to determining NADPH oxidase activity. […] Prenyl cysteine analogues can disrupt G-protein interaction with activated FMLP receptors (Scheer, A. & Gierschik, P. Biochemistry. 34,4952-4961 (1995), the teachings of which are incorporated herein by reference); therefore to determine compound VI's level of action, neutrophil superoxide anion generation was examined in the presence of phorbol 12-myristate 13-acetate (PMA), a potent trigger for O2- production which bypasses cell surface receptors to stimulate protein kinase C and subsequent NADPH assembly (see for example, Baggiolini, M., Boulay, F., Badwey, J. A. & Curnutte, J. T. FASEB J. 7, […] (1993); FIG. 3c).
# After electroporation, cells in cytochrome c (0.7 mg/ml) were exposed (10 min, 37° C.) to PMA (10^−7 M), FMLP (10^−7 M) plus cytochalasin b (15 μg/ml), compound VI (1 μM) or compound VIII (1 μM) and supernatants monitored at 550 nm. Values represent the mean±SEM for n≧4.
# (§1) Neutrophils (10^7/500 μl) were electroporated (1.65 kV/cm, 250 μF, Ω∞, Invitrogen Electroporator VI) at 0° C. in the presence of 10−^9-10−^6 M compound VI, VIII, FDP, FMP, squalene or vehicle (ethanol 0.2%). After electroporation, cells, in cytochrome c (0.7 mg/ml), were exposed (10 minutes, 37° C.) to either cytochalasin b (5 μg/mL) and FMLP (10^−7 M)(a) or PMA ((10^−7 M)(b) and supernatants monitored at […]. Electroporation gave a 49.9% reduction in FMLP-stimulated NADPH oxidase compared to naive cells. Values (FIGS. 4a and 4b) represent the mean±SEM for n≧3, d≧6. For adhesion (FIGS. 4c and 4d), changes in light transmittance were monitored (as in Fiore, S., Nicolaou, K. C., Caulfield, T., Kataoka, H. & Serhan, C. N. Biochem. J. 266, 25-31 (1990), the teachings of which are incorporated herein by reference) after addition of compounds VI, VIII (1.6 μM) or vehicle (0.5 min) and FMLP (0.5-5 μM) (2.5 min). Cell viability remained>99%. Values represent the mean±SEM for n=3, d=9. 1,4,5-inositol-triphosphate levels were determined (Amersham) in fresh PMN (10^7 cells) exposed (5 minutes, 37° C.) to compound VI, compound VIII (1 μM) or vehicle and stimulated with FMLP (10^−7M, 37° C.) (as in FIG. 4e). % Inhibition after 10 second exposure to FMLP is reported as mean±SEM for n=4, d≧8. *p <0.05 in Student's paired t-test compared with control, while “NS” indicates no significant change compared to incubations in the presence of vehicle (ethanol 0.2%) alone. Stereochemistry of PSDP and PSMP (FIG. 4f) were assigned by routine methods (Poulter, C. D. and Rilling, H. C. Acc. Chem. Res. 11, 307-313, (1978), the teachings of which are hereby incorporated by reference).
# neutrophils = assay: Neutrophil homotypic adhesion (aggregation, light transmittance); format: cell-based, human
# Protocol: as §1
# human neutrophils = assay: FMLP-stimulated 1,4,5-inositol triphosphate (IP3) formation as surrogate for phospholipase C activity; format: cell-based; conditions: nM-μM amounts
# Protocol: as §1
# In addition to PLD, phospholipase C plays a critical role in intracellular signaling via the hydrolysis of inositol lipids to diacyl glyceride (DAG) and inositol trisphosphate (IP3) to effect a cascade of cellular events in response to pro-inflammatory stimuli. DAG activates protein kinases and is converted, in part, to phosphatidic acid by DAG kinase. Therefore, PLC together with DAG kinase provides a second major source of phosphatidic acid in human neutrophils (Agwu, DE, et al., Journal of Clinical Investigation 1991; 88:531). […] To this end, the impact of PSDP on fMLP-stimulated IP3 formation as a surrogate for phospholipase C activity was examined (FIG. 4e).
# Amersham's D-myo-inositol 1,4,5-trisphosphate (IP3) [^3H] assay was used for this procedure (Amersham code TRK 1000, including product assay, the contents of which are incorporated herein by reference). The assay is based on procedures developed by Takata S. et al. J. Clin. Invest. 93:499 (1994) and Dillon S. B. et al. J. Biol. Chem. 262:11546 (1987), the contents of which are incorporated herein by reference in their entirety. [drawing 24] […]
compound,measurement,setting,value
"GM-CSF: granulocyte/monocyte-colony stimulating factor, cytokine",increase of 32PO4 incorporation into compound VI,PMN,45.0%
same,increase of 32PO4 incorporation into compound VIII,PMN,84.1%
CCCCC/C=C\C/C=C\C/C=C\C/C=C\CCCC(=O)O [arachidonic acid],rate of superoxide anion generation (O2- production),neutrophil sonicates,1.38 nmoles/mg protein/min
"CC(C)=CCC/C(C)=C/CC/C(C)=C/C1C(COP(=O)(O)O)C1(C)CC/C=C(\C)CCC=C(C)C (stereo in doubt) [Compound VIII, presqualene monophosphate]",influence on PMA-stimulated O2- production,"[1]; PMA 10^-7 M, electroporated neutrophils",not significantly influenced
same,inhibition of neutrophil superoxide anion generation,[1]; nM-μM amounts,not
same,FMLP-triggered O2- production in the presence of the compound,"[1]; nM-μM quantities, electroporated neutrophils",unaltered
same,stimulation of O2- production by the compound alone,"[1]; no agonist, 1 μM (FIG. 3c)",neither compound VI nor VIII alone stimulated
same,stimulation of adhesion by the compound alone,neutrophils; no agonist,neither compound VI nor VIII alone stimulated
same,inhibition of FMLP-stimulated homotypic adhesion,neutrophils; μM levels,not
same,"inhibition of 1,4,5-inositol-triphosphate formation",human neutrophils,not
CCCCCCCCCC(=O)OC[C@H](COP(=O)(O)O)OC(=O)CCCCCCCCC [phosphatitic acid],rate of superoxide anion generation (O2- production),neutrophil sonicates,1.34 nmoles/mg protein/min

# Reference: patent publication US6416965B2, “Screening methods for presqualene disphosphate analogs” (Brigham and Women's Hospital, priority 1997, dated 2002)
